Test results taken from paper PMC5285354, “Cationic Net Charge and Counter Ion Type as Antimicrobial Activity Determinant Factors of Short Lipopeptides” (Frontiers in Microbiology, 2017).
Values after ≈ are worked out from the molar mass of the structure shown. Where a SMILES comes first, the peptide text is derived from it. The star is where a group is joined. Palmitoyl = CCCCCCCCCCCCCCCC(=O)*

Key:
Format in all cases: cell-based
[1] = test system: Aspergillus brasiliensis (ATCC 16404); details: ATCC 16404, 48 h
Summary of the method: (§1)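 Lowest lipopeptide concentration (μg/mL) with no observable growth gave the MIC, alongside MBC/MFC, by CLSI microbroth dilution. Fungi: Sabouraud dextrose broth, 10^3 cfu/mL start, 25°C for 48 h; bacteria: MH broth, 10^5 cfu/mL, 37°C for 18 h. Run in triplicate, three separate days.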

[2] = test system: Bacillus subtilis (ATCC 6633); details: for MIC Bacillus subtillis: ATCC 6633, 18 h; for MBC Bacillus subtillis: ATCC 6633, 24 h
Summary of the method: as §1

[3] = test system: Candida albicans (ATCC 10231); details: ATCC 10231, 48 h
Summary of the method: as §1

[4] = test system: Candida tropicalis (PCM 2681); details: PCM 2681, 48 h
Summary of the method: as §1

[5] = test system: Enterococcus faecalis (ATCC 29212); details: for MBC Enterococcus fecalis, lipopeptides without TFA counter ion / MIC Enterococcus fecalis / MIC Enterococcus fecalis, lipopeptides without TFA counter ion: ATCC 29212, 18 h; for MBC Enterococcus fecalis: ATCC 29212, 24 h
Summary of the method: as §1

[6] = test system: Escherichia coli (ATCC 25922); details: for MBC Escherichia coli, lipopeptides without TFA counter ion / MIC Escherichia coli / MIC Escherichia coli, lipopeptides without TFA counter ion: ATCC 25922, 18 h; for MBC Escherichia coli: ATCC 25922, 24 h
Summary of the method: as §1

[7] = test system: Klebsiella pneumoniae (ATCC 700603); details: for MBC Klebsiella pneumoniae, lipopeptides without TFA counter ion / MIC Klebsiella pneumoniae / MIC Klebsiella pneumoniae, lipopeptides without TFA counter ion: ATCC 700603, 18 h; for MBC Klebsiella pneumoniae: ATCC 700603, 24 h
Summary of the method: as §1

[8] = test system: Proteus vulgaris (PCM 2668); details: 18 h
Summary of the method: as §1

[9] = test system: Pseudomonas aeruginosa (ATCC 9027); details: ATCC 9027, 18 h
Summary of the method: as §1

[10] = test system: Staphylococcus aureus (ATCC 25923); details: for MBC Staphylococcus aureus, lipopeptides without TFA counter ion / MIC Staphylococcus aureus / MIC Staphylococcus aureus, lipopeptides without TFA counter ion: ATCC 25923, 18 h; for MBC Staphylococcus aureus: ATCC 25923, 24 h
Summary of the method: as §1

[11] = test system: Staphylococcus epidermidis (PCM 2118); details: for MIC Staphylococcus epidermidis: PCM 2118, 18 h; for MBC Staphylococcus epidermidis: PCM 2118, 24 h
Summary of the method: as §1

[12] = test system: human red blood cells; details: 1 h
Summary of the method: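 Washed donor erythrocytes (4% v/v in PBS, EDTA-anticoagulated) incubated with graded lipopeptide concentrations for 1 h at 37 °C; hemoglobin release read at 550 nm in supernatants. Scaled between 0.1% Triton X-100 (100%) and PBS (0%); MHC is the lowest concentration giving 10% hemolysis.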

[13] = test system: Pseudomonas aeruginosa (ATCC 9027); details: ATCC 9027, 24 h
[14] = test system: Proteus vulgaris (PCM 2668); details: 24 h
[15] = test system: Candida albicans (ATCC 10231)

Row | SMILES | MFC Aspergillus brasiliensis [1] | MIC Aspergillus brasiliensis [1] | MIC Bacillus subtillis [2] | MBC Bacillus subtillis [2] | MFC Candida albicans [3] | MIC Candida albicans [3] | MIC Candida albicans, lipopeptides without TFA counter ion [3] | MFC Candida tropicalis [4] | MIC Candida tropicalis [4] | MBC Enterococcus fecalis, lipopeptides without TFA counter ion [5] | MIC Enterococcus fecalis [5] | MIC Enterococcus fecalis, lipopeptides without TFA counter ion [5] | MBC Enterococcus fecalis [5] | MBC Escherichia coli, lipopeptides without TFA counter ion [6] | MIC Escherichia coli [6] | MIC Escherichia coli, lipopeptides without TFA counter ion [6] | MBC Escherichia coli [6] | MBC Klebsiella pneumoniae, lipopeptides without TFA counter ion [7] | MIC Klebsiella pneumoniae [7] | MIC Klebsiella pneumoniae, lipopeptides without TFA counter ion [7] | also measured
1 | CCCCCCCCCCCCCC(=O)N[C@@H](CCCCN)C(N)=O [C14-K-NH2] | 512 µg/mL (≈ 1440 µM) | 512 µg/mL (≈ 1440 µM) | 32 µg/mL (≈ 90 µM) | 32 µg/mL (≈ 90 µM) | 512 µg/mL (≈ 1440 µM) | 512 µg/mL (≈ 1440 µM) | 512 µg/mL (≈ 1440 µM) | >512 µg/mL | >512 µg/mL | 64 µg/mL (≈ 180 µM) | 64 µg/mL (≈ 180 µM) | 64 µg/mL (≈ 180 µM) | 64 µg/mL (≈ 180 µM) | 128 µg/mL (≈ 360 µM) | 128 µg/mL (≈ 360 µM) | 64 µg/mL (≈ 180 µM) | 128 µg/mL (≈ 360 µM) | 512 µg/mL (≈ 1440 µM) | 64 µg/mL (≈ 180 µM) | 64 µg/mL (≈ 180 µM) | MBC Klebsiella pneumoniae [7]: 512 µg/mL (≈ 1440 µM); MIC Proteus vulgaris [8]: >512 µg/mL; MIC Pseudomonas aeruginosa [9]: 128 µg/mL (≈ 360 µM); MBC Staphylococcus aureus, lipopeptides without TFA counter ion [10]: 64 µg/mL (≈ 180 µM); MIC Staphylococcus aureus [10]: 64 µg/mL (≈ 180 µM); MIC Staphylococcus aureus, lipopeptides without TFA counter ion [10]: 64 µg/mL (≈ 180 µM); MBC Staphylococcus aureus [10]: 64 µg/mL (≈ 180 µM); MIC Staphylococcus epidermidis [11]: 16 µg/mL (≈ 45 µM); MBC Staphylococcus epidermidis [11]: 16 µg/mL (≈ 45 µM); Hemolysis HC10 (MHC), concentration of lipopeptide inducing 10% of hemolysis [12]: 512 µg/mL; MBC Pseudomonas aeruginosa [13]: 1000 µg/mL (≈ 2810 µM); MBC Proteus vulgaris [14]: >512 µg/mL; MFC Candida albicans, lipopeptides without TFA counter ion [15]: 512 µg/mL (≈ 1440 µM)
2 | CCCCCCCCCCCCCC(=O)N[C@@H](CCCCN)C(=O)N[C@@H](CCCCN)C(N)=O [C14-KK-NH2] | 256 µg/mL (≈ 529 µM) | 256 µg/mL (≈ 529 µM) | 4 µg/mL (≈ 8.27 µM) | 4 µg/mL (≈ 8.27 µM) | 128 µg/mL (≈ 265 µM) | 128 µg/mL (≈ 265 µM) | 256 µg/mL (≈ 529 µM) | 256 µg/mL (≈ 529 µM) | 256 µg/mL (≈ 529 µM) | 32 µg/mL (≈ 66.2 µM) | 32 µg/mL (≈ 66.2 µM) | 32 µg/mL (≈ 66.2 µM) | 64 µg/mL (≈ 132 µM) | 64 µg/mL (≈ 132 µM) | 64 µg/mL (≈ 132 µM) | 32 µg/mL (≈ 66.2 µM) | 128 µg/mL (≈ 265 µM) | 128 µg/mL (≈ 265 µM) | 128 µg/mL (≈ 265 µM) | 128 µg/mL (≈ 265 µM) | MBC Klebsiella pneumoniae [7]: 128 µg/mL (≈ 265 µM); MIC Proteus vulgaris [8]: >512 µg/mL; MIC Pseudomonas aeruginosa [9]: 32 µg/mL (≈ 66.2 µM); MBC Staphylococcus aureus, lipopeptides without TFA counter ion [10]: 64 µg/mL (≈ 132 µM); MIC Staphylococcus aureus [10]: 64 µg/mL (≈ 132 µM); MIC Staphylococcus aureus, lipopeptides without TFA counter ion [10]: 32 µg/mL (≈ 66.2 µM); MBC Staphylococcus aureus [10]: 64 µg/mL (≈ 132 µM); MIC Staphylococcus epidermidis [11]: 4 µg/mL (≈ 8.27 µM); MBC Staphylococcus epidermidis [11]: 4 µg/mL (≈ 8.27 µM); Hemolysis HC10 (MHC), concentration of lipopeptide inducing 10% of hemolysis [12]: 128 µg/mL; MBC Pseudomonas aeruginosa [13]: 64 µg/mL (≈ 132 µM); MBC Proteus vulgaris [14]: >512 µg/mL; MFC Candida albicans, lipopeptides without TFA counter ion [15]: 256 µg/mL (≈ 529 µM)
3 | CCCCCCCCCCCCCCCC(=O)N[C@@H](CCCCN)C(=O)NCC(=O)N[C@@H](CCCCN)C(N)=O [C16-KGK-NH2] (Palmitoyl-Lys-Gly-Lys-NH2) | 128 µg/mL (≈ 225 µM) | 128 µg/mL (≈ 225 µM) | 4 µg/mL (≈ 7.03 µM) | 4 µg/mL (≈ 7.03 µM) | 128 µg/mL (≈ 225 µM) | 128 µg/mL (≈ 225 µM) | 128 µg/mL (≈ 225 µM) | 256 µg/mL (≈ 450 µM) | 256 µg/mL (≈ 450 µM) | 4 µg/mL (≈ 7.03 µM) | 8 µg/mL (≈ 14.1 µM) | 4 µg/mL (≈ 7.03 µM) | 16 µg/mL (≈ 28.1 µM) | 4 µg/mL (≈ 7.03 µM) | 8 µg/mL (≈ 14.1 µM) | 4 µg/mL (≈ 7.03 µM) | 8 µg/mL (≈ 14.1 µM) | 64 µg/mL (≈ 113 µM) | 16 µg/mL (≈ 28.1 µM) | 32 µg/mL (≈ 56.3 µM) | MBC Klebsiella pneumoniae [7]: 16 µg/mL (≈ 28.1 µM); MIC Proteus vulgaris [8]: >512 µg/mL; MIC Pseudomonas aeruginosa [9]: 16 µg/mL (≈ 28.1 µM); MBC Staphylococcus aureus, lipopeptides without TFA counter ion [10]: 4 µg/mL (≈ 7.03 µM); MIC Staphylococcus aureus [10]: 8 µg/mL (≈ 14.1 µM); MIC Staphylococcus aureus, lipopeptides without TFA counter ion [10]: 4 µg/mL (≈ 7.03 µM); MBC Staphylococcus aureus [10]: 8 µg/mL (≈ 14.1 µM); MIC Staphylococcus epidermidis [11]: 4 µg/mL (≈ 7.03 µM); MBC Staphylococcus epidermidis [11]: 4 µg/mL (≈ 7.03 µM); Hemolysis HC10 (MHC), concentration of lipopeptide inducing 10% of hemolysis [12]: 64 µg/mL; MBC Pseudomonas aeruginosa [13]: 32 µg/mL (≈ 56.3 µM); MBC Proteus vulgaris [14]: >512 µg/mL; MFC Candida albicans, lipopeptides without TFA counter ion [15]: 128 µg/mL (≈ 225 µM)
4 | CCCCCCCCCCCCCC(=O)N[C@@H](CCCCN)C(=O)N[C@@H](CCCCN)C(=O)N[C@@H](CCCCN)C(N)=O [C14-KKK-NH2] | 64 µg/mL (≈ 105 µM) | 64 µg/mL (≈ 105 µM) | 4 µg/mL (≈ 6.54 µM) | 4 µg/mL (≈ 6.54 µM) | 128 µg/mL (≈ 209 µM) | 128 µg/mL (≈ 209 µM) | 256 µg/mL (≈ 418 µM) | 128 µg/mL (≈ 209 µM) | 128 µg/mL (≈ 209 µM) | 64 µg/mL (≈ 105 µM) | 64 µg/mL (≈ 105 µM) | 32 µg/mL (≈ 52.3 µM) | 64 µg/mL (≈ 105 µM) | 128 µg/mL (≈ 209 µM) | 128 µg/mL (≈ 209 µM) | 128 µg/mL (≈ 209 µM) | 128 µg/mL (≈ 209 µM) | 256 µg/mL (≈ 418 µM) | 128 µg/mL (≈ 209 µM) | 128 µg/mL (≈ 209 µM) | MBC Klebsiella pneumoniae [7]: 128 µg/mL (≈ 209 µM); MIC Proteus vulgaris [8]: >512 µg/mL; MIC Pseudomonas aeruginosa [9]: 32 µg/mL (≈ 52.3 µM); MBC Staphylococcus aureus, lipopeptides without TFA counter ion [10]: 32 µg/mL (≈ 52.3 µM); MIC Staphylococcus aureus [10]: 64 µg/mL (≈ 105 µM); MIC Staphylococcus aureus, lipopeptides without TFA counter ion [10]: 32 µg/mL (≈ 52.3 µM); MBC Staphylococcus aureus [10]: 64 µg/mL (≈ 105 µM); MIC Staphylococcus epidermidis [11]: 8 µg/mL (≈ 13.1 µM); MBC Staphylococcus epidermidis [11]: 8 µg/mL (≈ 13.1 µM); Hemolysis HC10 (MHC), concentration of lipopeptide inducing 10% of hemolysis [12]: 256 µg/mL; MBC Pseudomonas aeruginosa [13]: 128 µg/mL (≈ 209 µM); MBC Proteus vulgaris [14]: >512 µg/mL; MFC Candida albicans, lipopeptides without TFA counter ion [15]: 256 µg/mL (≈ 418 µM)
